According to patent US20060073189A1, “Chewing gums, lozenges, candies, tablets, liquids, and sprays for efficient delivery of medications and dietary supplements” (priority 2000, published 2006):

Assay: pKa and ionisation of active ingredients
Format: physicochemical
Details: at a pH of 8.3

ionized: 50%
Structure (SMILES): CN(C)CCOC(c1ccccc1)c1ccccc1 [diphenhydramine]
